Earlier results, collected in US7307164B2, “β-amino heterocyclic dipeptidyl peptidase inhibitors for the treatment or prevention of diabetes” (Merck & Co., Inc., priority 2002, dated 2007).

Key:
cardiac allograft = details: rats; survival from day 7 to day 14
DP-IV = target: T1, DP-IV (Homo sapiens, UniProt P27487)
T1 construct: GRF is rapidly degraded in plasma to GRF[3-44]

hematopoiesis = details: mouse, cyclophosphamide-induced neutropenia

T1 sequence (P27487 whole entry): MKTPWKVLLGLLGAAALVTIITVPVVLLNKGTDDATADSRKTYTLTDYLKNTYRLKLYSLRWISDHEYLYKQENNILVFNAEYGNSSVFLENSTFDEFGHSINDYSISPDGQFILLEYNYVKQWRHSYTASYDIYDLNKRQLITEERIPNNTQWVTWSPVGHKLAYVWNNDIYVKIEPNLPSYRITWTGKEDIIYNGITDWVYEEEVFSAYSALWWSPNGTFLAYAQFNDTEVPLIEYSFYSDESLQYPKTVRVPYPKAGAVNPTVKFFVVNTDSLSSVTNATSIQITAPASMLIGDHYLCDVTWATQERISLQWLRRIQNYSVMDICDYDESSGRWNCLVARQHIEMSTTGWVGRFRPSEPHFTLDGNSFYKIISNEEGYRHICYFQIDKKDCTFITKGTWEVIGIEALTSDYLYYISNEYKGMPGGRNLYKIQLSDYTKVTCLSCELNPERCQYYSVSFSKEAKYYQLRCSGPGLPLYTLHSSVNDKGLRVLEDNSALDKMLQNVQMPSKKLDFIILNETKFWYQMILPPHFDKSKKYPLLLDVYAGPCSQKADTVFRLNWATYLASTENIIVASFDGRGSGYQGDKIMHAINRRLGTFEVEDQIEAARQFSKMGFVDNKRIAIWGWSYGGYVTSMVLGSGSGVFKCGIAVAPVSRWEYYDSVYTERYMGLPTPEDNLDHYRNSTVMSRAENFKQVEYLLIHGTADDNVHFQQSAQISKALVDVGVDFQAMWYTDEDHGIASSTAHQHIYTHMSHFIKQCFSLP

CC(C)N1CCC(c2ccccc2)(c2ccccc2)CC1 [Prodipine, Pro-Pro-diphenyl-phosphonate]
cardiac allograft survival (cardiac allograft): double cardiac allograft survival

CC[C@H](C)[C@H](N)C(=O)N1CCC[C@H]1C(=O)N[C@H](C(=O)O)[C@@H](C)CC [diprotin A]
degradation of GRF in plasma to GRF[3-44] (DP-IV): prevented

CC(C)[C@H](N)C(=O)N1CCC[C@H]1B(O)O [Val-Boro-Pro]
hematopoiesis (hematopoiesis): stimulated hematopoiesis
